Columns and labels:
[1] = biological target: T1, Steryl-sulfatase (Homo sapiens) (UniProt P08842); assay: Inhibitory activity against estrone sulfatase relative to 4-Methylcoumarin-7-O-sulfamate derivative (COUMATE)
T1 sequence (whole entry): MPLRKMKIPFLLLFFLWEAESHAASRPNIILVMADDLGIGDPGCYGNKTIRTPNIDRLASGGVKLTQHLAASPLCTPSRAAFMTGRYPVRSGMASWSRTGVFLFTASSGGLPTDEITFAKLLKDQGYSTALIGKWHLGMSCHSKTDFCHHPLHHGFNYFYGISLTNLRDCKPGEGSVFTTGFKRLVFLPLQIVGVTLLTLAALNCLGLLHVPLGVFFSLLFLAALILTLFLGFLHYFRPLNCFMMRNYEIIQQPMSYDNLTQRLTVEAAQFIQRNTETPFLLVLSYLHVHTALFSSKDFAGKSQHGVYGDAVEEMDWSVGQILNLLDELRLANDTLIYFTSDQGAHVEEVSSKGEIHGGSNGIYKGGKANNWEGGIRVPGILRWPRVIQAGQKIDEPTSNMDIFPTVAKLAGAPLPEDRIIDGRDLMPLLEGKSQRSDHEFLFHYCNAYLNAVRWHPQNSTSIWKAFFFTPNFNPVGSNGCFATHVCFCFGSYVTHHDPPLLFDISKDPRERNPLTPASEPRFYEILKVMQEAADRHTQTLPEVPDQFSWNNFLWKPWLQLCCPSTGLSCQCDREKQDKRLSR

[2] = Partition coefficient (logP); type: physicochemical; details: octanol/water
[3] = biological target: T1, Steryl-sulfatase (Homo sapiens); assay: Inhibitory activity against estrone sulfatase relative to Estrone-3-sulfamate (EMATE)
[4] = biological target: T1, Steryl-sulfatase (Homo sapiens)
Description: Inhibitory activity against estrone sulfatase expressed as potency

Row | SMILES | Potency [1] | logP [2] | Potency [3] | Potency [4]
1 | CCCCCCC(=O)c1ccc(OS(N)(=O)=O)cc1 | 2.4 | 3.3 | 0.1 | 
2 | CCCC(=O)c1ccc(OS(N)(=O)=O)cc1 | 0.301 | 2.1 | 0.0126 | 
3 | NS(=O)(=O)Oc1ccc(C(=O)Cc2ccccc2)cc1 | 0.364 | 2.9 | 0.0152 | 
4 | NS(=O)(=O)Oc1ccc(C(=O)c2ccccc2)cc1 | 0.191 | 2.9 | 0.0079 | 
5 | C[C@]12CC[C@@H]3c4ccc(OS(N)(=O)=O)cc4CCC3[C@@H]1CCC2=O (single isomer, unassigned) [EMATE] | 24 | 3.9 |  | 1
6 | CCCCC(=O)c1ccc(OS(N)(=O)=O)cc1 | 0.574 | 2.5 | 0.0239 | 
7 | CCCCCCCC(=O)c1ccc(OS(N)(=O)=O)cc1 | 2.14 | 3.7 | 0.0893 | 
8 | Cc1cc(=O)oc2cc(OS(N)(=O)=O)ccc12 |  | 1.7 | 0.0417 | 1
9 | NS(=O)(=O)Oc1ccc(C(=O)/C=C/c2ccccc2)cc1 | 0.0456 | 3.4 | 0.0019 | 
10 | CCCCCCCCC(=O)c1ccc(OS(N)(=O)=O)cc1 | 3.53 | 4.1 | 0.147 | 
11 | CC(=O)c1ccc(OS(N)(=O)=O)cc1 | 0.0397 | 1.1 | 0.0016 | 
12 | CCCCCCCCCC(=O)c1ccc(OS(N)(=O)=O)cc1 | 0.923 | 4.4 | 0.0385 | 
13 | NS(=O)(=O)Oc1ccc(C=O)cc1 | 0.0472 | 1.4 | 0.0019 | 
